According to patent US6713645B1, “Substituted tricyclics” (Eli Lilly and Company, priority 1996, dated 2004):

| SMILES | melting point |
| --- | --- |
| COc1cc(OCC(=O)[O-])c2c3c(n(Cc4ccccc4)c2c1)CCCC3C(N)=O.[Na+] (stereo not drawn) | 251 to 254 °C |
| COc1cc(OC)c2c3c(n(Cc4ccccc4)c2c1)CCCC3C(=O)NN (stereo not drawn) [Example 1, 9-benzyl-5,7-dimethoxy-1,2,3,4-tetrahydrocarbazole-4-carboxylic acid hydrazide] | 189 to 190 °C |
| NC(=O)c1cccc2c1c1c(OCC(=O)O)ccc(Cl)c1n2Cc1ccccc1 [Example 54, [9-benzyl-5-carbamoyl-1-chlorocarbazol-4-yl]oxyacetic acid] | 240 to 242 °C |
| COc1cc(OC)c2c3c(n(Cc4ccccc4)c2c1)CCCC3C(N)=O (stereo not drawn) [Example 2, 9-benzyl-5,7-dimethoxy-1,2,3,4-tetrahydrocarbazole-4-carboxamide] | 190 to 192 °C |
| Cc1ccc(OCC(=O)O)c2c3c(C(N)=O)cccc3n(Cc3ccccc3)c12 [Example 50, [9-benzyl-5-carbamoyl-1-methylcarbazol-4-yl]oxyacetic acid] | 253 to 254 °C |
| COc1cc(OC(C)C(=O)O)c2c3c(C(N)=O)cccc3n(Cc3ccccc3)c2c1 (stereo not drawn) [Example 5, methyl [9-benzyl-4-carbamoyl-7-methoxycarbazol-5-yl]oxyacetic acid] | 170 to 172 °C |
